Legend:
[1] = tested on: HERV-W related transcripts (env and pol mRNA); experiment: HERV-W related transcripts levels by RT-qPCR in PBMC of MS patients treated with GNbAC1 (GNC002 Phase IIa trial); assay type: in vivo, human; settings: for all HERV-W transcript levels compared to basal values at inclusion: at the 6th monthly GNbAC1 administration, relative expression to GUS B
Protocol: The present GNC002 Phase IIa clinical trial was performed to assess the safety profile and the pharmacokinetics of GNbAC1 at 2 and 6 mg/kg in 10 MS patients. GNC002 consisted in a 12 months longitudinal study, in which GNbAC1 is administered on a monthly basis.
The present analysis was conducted on samples collected during the first 6 months of GNC002, where HERV-W related transcripts levels were assessed by real time quantitative polymerase chain reaction (RT-qPCR) in peripheral blood mononuclear cells (PBMC) of enrolled patients. HERV-W transcripts are assessed by different primers/probe sets as follows: MSRV-env, HERV-W-UNO, HERV-W-UNO2,
Briefly, the first step consisted in the extraction of total RNA from PBMC samples. Samples were PBMC isolated from blood collected on CPT tubes and frozen in 0.5 ml of DMSO 10% in Foetal Calf Serum. After thawing, PBMC samples were washed with ice-cold PBS and total RNAs were extracted with QIAamp RNeasy Mini Kit. Then, cDNAs were prepared by retro-transcribing all mRNA contained in previously extracted total RNAs. Quantitative PCRs were conducted on these cDNAs, with addition of an internal standard used as an inter-plate calibrator (allowing the standardization of the values throughout an experiment with multiple plates). Results were expressed as the relative expression of the targeted RNA (MSRV/HERV-W), by a ratio to the expression of GUS B RNA, a reference housekeeping gene with a stable expression level in MS population.
The Relative Expression of each targeted RNA within each sample is calculated as follows: Targeted RNA Relative Expression to GUS B=2^(Cq GUS B-Cq targeted RNA) Extraction Yields and Samples Exclusion
For each patient included in the study, PBMCs were isolated from blood sample at Day 1 (inclusion), Day 2, Day 8, Day 15, and Day 29. Afterwards, patients have received 5 additional monthly GNbAC1 administrations and PBMCs were isolated from blood sample before each infusion of antibody. Thus, the following results represent the variation of each HERV-W related transcript over the first 6 months of GNC002 study.
The second GNbAC1 administration occurred at different time points from Day 1, depending on patients. Thus, the mean variation of HERV-W related transcripts was assessed with blood samples collected before each GNbAC1 administration only.

[2] = tested on: HERV-W Reverse-transcriptase (RT); experiment: Western blot of HERV-W pol-encoded Reverse-Transcriptase protein in CH1/CH2 cell cultures treated with GNbAC1 and/or AZT; assay type: cell-based, Human; settings: CH1 and CH2 co-culture; AZT 1 μg/ml, GNbAC1 300 μg/ml; versus mock-treated cells
Protocol: Human CH1 and CH2 cells (1:1) cells were co-cultured for optimizing the growth of CH2 cells and maintained in 6-well plates (CC7672-7506; CytoOne) at a density of 1.10^6 cell/well in IMDM medium (Ser. No. 12/440,053; Lifetech) supplemented with 10% fetal calf serum (Ser. No. 10/270,106; Invitrogen), 1% penicillin/streptomycin (P4333; Sigma) at 37° C. with 5% CO2. Cells were treated with i) AZT (1 μg/ml, A21-69; Sigma), ii) GNbAC1 (300 μg/ml, T950111-A; Polymun), iii) AZT+GNbAC1 or corresponding controls with GNbAC1 buffer [20 mM His, 5% Sucrose (w/v), 0.01% Tween 20 (w/v)].
CH1 and CH2 cells were resuspended in 200 μl of RIPA buffer (R0278, SIGMA) containing cOmplete® anti-phosphatase inhibitor cocktail (04 693 132001; Roche) and 0.05% LPG (326495-22-1; Avanti Polar) at 4° C., incubated for 2 hours at 26° C. on a rotating platform and centrifuged at 10000 g for 20 minutes at 26° C. Supernatant were collected and stored at −20° C.
Protein extracts were diluted (2:1) in 2× Laemmli buffer (Biorad) and heated for 5 minutes at 100° C. before loading. Proteins were separated by 7.5% sodium dodecyl sulfate-polyacrylamide gel electrophoresis (TGX, Biorad). Gels were run for a time period of 15 min at 120 mA in running buffer (Life Technologies). […] Protein of interest was detected with a colometric reaction (Opti 4-CN, Biorad), according to the provided protocol. […]

[3] = healthy volunteers, Phase 1

GNbAC1: humanized IgG4 monoclonal antibody directed against HERV-W/MSRV Envelope protein; heavy chain SEQ ID No: 9, light chain SEQ ID No: 10
all HERV-W transcript levels compared to basal values at inclusion ([1]; 2 mg/kg cohort, PBMC): decrease | all HERV-W transcript levels compared to basal values at inclusion ([1]; 6 mg/kg cohort, PBMC): confirmed | env mRNA and pol mRNA levels compared to levels before treatment ([1]; after three and six months of treatment): parallel and progressive decrease | HERV-W pol mRNA level ([1]; injected once a month over six months, PBMC, pol qPCR protocol): decrease is also marked | HERV-W RT protein expression (Western blot signal) [2]: minor effects | pharmacokinetics [3]: linear | safety profile [3]: favorable

Reference: patent US10894820B2, “Antiretroviral drug targeting human endogenous retrovirus” (priority 2014, dated 2021)
